From patent US20230338347A1, “New Use of Inhibitors of the Notch Signalling Pathway” (Cellestia Biotech AG, priority 2020, published 2023)
Structures can show the parent of a compound that is named as a salt.

Legend:
[1] = Phase I/IIA dose escalation: visual symptoms (eye-related AE) per dose group; type: in vivo, human
Protocol: The dosing will be 15, 30, 60, 120, 170, 250, 400, or 600 mg of the 6-(4-Tert-Butylphenoxy)Pyridin-3-Amine monohydrochloride salt or higher per day or alternatively 20, 40, 60, 120, 170, 250, 400, or 600 mg of the 6-(4-Tert-Butylphenoxy)Pyridin-3-Amine monohydrochloride salt or higher per day. Dosing of 15, 30, 60, 120, 170, 250, 400, or 600 mg of the 6-(4-Tert-Butylphenoxy)Pyridin-3-Amine monohydrochloride salt corresponds to dosing of 13, 26, 52, 104, 148, 217, 348, or 522 mg of 6-(4-Tert-Butylphenoxy)Pyridin-3-Amine (free base). Dosing of 20, 40, 60, 120, 170, 250, 400, or 600 mg of the 6-(4-Tert-Butylphenoxy)Pyridin-3-Amine monohydrochloride salt corresponds to dosing of 17, 35, 52, 104, 148, 217, 348, or 522 mg of 6-(4-Tert-Butylphenoxy)Pyridin-3-Amine (free base). For this study, 6-(4-Tert-Butylphenoxy)Pyridin-3-Amine monohydrochloride salt was formulated into a capsule having a drug load of 5, 10, 20, 50 and 100 mg, respectively intended to be administered orally. • Patients will meet the following criteria:
In the dose escalation cohort, patients in dose group (DG) 4 receiving 120mg of 6-(4-Tert-Butylphenoxy)Pyridin-3-Amine monohydrochloride salt and patients in higher dose groups reported visual symptoms with increasing incidence. It is believed that the occurrence of visual symptoms is a pharmacodynamic effect of 6-(4-Tert-Butylphenoxy)Pyridin-3-Amine. This makes a dose of 120 mg and higher of the 6-(4-Tert-Butylphenoxy)Pyridin-3-Amine monohydrochloride salt the therapeutic dose of choice.

NOTCH target genes [2] = assay: NOTCH target gene expression in hair follicles of Phase 1 patients (Nanostring); type: in vivo, human; details: Homo sapiens, hair follicle, read-out: Inhibition range, NOTCH target down regulation
From the text: Hair follicles were obtained at pre-defined time points to measure changes in NOTCH target genes expression by 6-(4-Tert-Butylphenoxy)Pyridin-3-Amine treatment. NOTCH target gene down-regulation in hair follicles has been reported to be a robust and indicative biomarker that correlates with both clinical efficacy and the incidence of DLTs (Tanis K Q, et al. Clin Pharmacol Ther 2016; 99(4):370-80; Cook N, et al. BJC 2018; 118(6):793-801).
Between 5 to 10 hairs were plucked to extract the complete and undamaged hairbulb (full hair follicle), and processed as described in Camidge D R, et al. Br J Cancer 2005; 92:1837-41 and Bradley B J, et al. Mol EcolNotes 2005; 5:961-4. RNA concentration was measured by Qubit (RNAHighSensitivity), and RNA integrity was evaluated on a RNA 6000 Pico chip. RNA samples were tested for gene expression profiling on a Nanostring platform.
(§1) Table 1: NOTCH target down regulation in hair follicles and blood cells from Phase 1 patients. Target gene down regulation (CCND3, cyclin-D3; HES1, Hairy and enhance of split-1; HES4, Hairy and enhance of split-4; HESS, Hairy and enhance of split-5; HEY1, hes related family bHLH transcription factor with YRPW motif1; HEY2; hes related family bHLH transcription factor with YRPW motif 2; HEYL, hes-related family bHLH transcription factor with YRPW motif-like; IL7R-α, Interleukin-7 receptor subunit alpha; NOTCH1; NOTCH2; NRARP (NOTCH Regulated Ankyrin Repeat Protein): […]

NOTCH target genes [3] = assay: NOTCH target gene expression in whole blood of Phase 1 patients (Nanostring); type: in vivo; details: Homo sapiens, 600 mg dose group, CCND3, HEY1, IL7Rα, NOTCH1, NOTCH2, read-out: Inhibition range, NOTCH target down regulation
Protocol: In addition to hair follicles, gene expression profiling to measure changes in NOTCH target genes was also performed in whole blood as an alternative surrogate tissue.
Whole blood samples for gene expression analysis were collected in PAXgene Blood RNA Tubes and RNA extracted following their standard Blood RNA Kit for silica-membrane-based RNA isolation and purification (Beckton Dickinson). RNA samples were tested for gene expression profiling on a Nanostring platform.
as §1

CC(C)(C)c1ccc(Oc2ccc(N)cn2)cc1 [6-(4-Tert-Butylphenoxy)Pyridin-3-Amine monohydrochloride]
Eye-related AE, % on total pts per DG ([1]; DG4 (120 mg)): 43% | dose at and above which visual symptoms were reported (increasing incidence) ([1]; DG4 and higher dose groups, once daily oral): ≥ 120 mg | Eye-related AE, % on total pts per DG ([1]; DG5 (170 mg)): 67% | Eye-related AE, % on total pts per DG ([1]; DG6 (250 mg)): 75% | Eye-related AE, % on total pts per DG ([1]; DG7 (400 mg)): 67% | Eye-related AE, % on total pts per DG ([1]; DG8 (600 mg)): 67% | Adaptative visual difficulty, #AEs ([1]; all dose groups): 1 | Blurred vision, #AEs ([1]; all dose groups): 6 | Eye disorder, #AEs ([1]; all dose groups): 2 | Eye-related AE Total, #AEs ([1]; all dose groups): 26 | Intermittent color vision deficiency/ Intermittent blurred vision, #AEs ([1]; all dose groups): 2 | Photophobia, #AEs ([1]; all dose groups): 2 | Photopsy, #AEs ([1]; all dose groups): 3 | Transient defect in accommodation to dim light, #AEs ([1]; all dose groups): 7 | Visual alteration, #AEs ([1]; all dose groups): 2 | Visual disturbance in light exposure, #AEs ([1]; all dose groups): 1 | inhibition at 60 mg (NOTCH target genes [2]; 60 mg dose group, HES4, HES5, NRARP): ≤ 80% | inhibition at 120 mg (NOTCH target genes [2]; 120 mg dose group, CCND3, HES4, HES5, HEYL, HEY2): ≤ 95% | inhibition at 170 mg (NOTCH target genes [2]; 170 mg dose group, HES1): ≤ 75% | inhibition at 250 mg (NOTCH target genes [2]; 250 mg dose group, CCND3, HES1, HEY2, NRARP): ≤ 80% | inhibition at 600 mg (NOTCH target genes [3]): ≤ 50%
